Consider 12 compounds from US11254686B1 (Corvus Pharmaceuticals, Inc., priority 2017, dated 2022).

For one series, the target named is adenosine A3 receptor (Homo sapiens (Human), UniProt P0DMS8). The series can be described thus: A3 cAMP IC50 assay (Table 1). In kind it is biochemical.
Series [1] in a line: Hepatocyte (Hep) intrinsic clearance, human. Format: in vitro ADME. The note with it: hepatocytes.
A further series deals with CYP3A4 (Homo sapiens (Human), UniProt P08684). The series can be described thus: CYP450 inhibition at 10 μM, CYP3A4. In kind it is in vitro ADME. The note with it: human, 10 μM, read-out: CYP 450 % INH @ 10 μM.
Chain of CYP3A4 (P08684 whole entry): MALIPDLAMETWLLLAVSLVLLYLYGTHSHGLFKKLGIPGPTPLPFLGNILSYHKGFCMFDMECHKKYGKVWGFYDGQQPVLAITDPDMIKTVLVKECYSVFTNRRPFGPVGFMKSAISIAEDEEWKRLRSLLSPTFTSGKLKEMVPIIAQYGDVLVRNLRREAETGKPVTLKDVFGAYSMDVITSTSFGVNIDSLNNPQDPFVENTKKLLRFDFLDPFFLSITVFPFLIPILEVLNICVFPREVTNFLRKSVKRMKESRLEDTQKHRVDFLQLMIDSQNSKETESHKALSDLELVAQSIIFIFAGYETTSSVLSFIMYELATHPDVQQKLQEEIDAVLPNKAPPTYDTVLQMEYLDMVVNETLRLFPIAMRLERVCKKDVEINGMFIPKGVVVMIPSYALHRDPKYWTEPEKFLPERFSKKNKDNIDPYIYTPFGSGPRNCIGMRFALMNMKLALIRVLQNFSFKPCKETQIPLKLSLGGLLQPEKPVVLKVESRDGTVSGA
Series [2] is described as follows: Liver microsome (LM) intrinsic clearance, human. In kind it is in vitro ADME. Background: Liver microsomes are a subcellular fraction often used to study metabolism.
The nature of series [3]: Hepatocyte (Hep) intrinsic clearance, rat. Particulars: hepatocytes. In kind it is in vitro ADME.
Series [4] can be described thus: Liver microsome (LM) intrinsic clearance, rat. Format: in vitro ADME.
A further series concerns the target adenosine A2A receptor (Homo sapiens (Human), UniProt P29274). In words: Adenosine receptor activity assay (Table 1), A2A activity. Particulars: read-out: Ave A2A cAMP IC50. Format: biochemical.
The target of another series is adenosine A2B receptor (Homo sapiens (Human), UniProt P29275). In words: Adenosine receptor activity assay (Table 1), A2B activity. Format: biochemical. The note with it: for Ratio: A2A activity to A2B activity (A2A/A2B); for IC50: read-out: Ave A2B cAMP IC50.
Chain of adenosine A2B receptor (P29275 whole entry): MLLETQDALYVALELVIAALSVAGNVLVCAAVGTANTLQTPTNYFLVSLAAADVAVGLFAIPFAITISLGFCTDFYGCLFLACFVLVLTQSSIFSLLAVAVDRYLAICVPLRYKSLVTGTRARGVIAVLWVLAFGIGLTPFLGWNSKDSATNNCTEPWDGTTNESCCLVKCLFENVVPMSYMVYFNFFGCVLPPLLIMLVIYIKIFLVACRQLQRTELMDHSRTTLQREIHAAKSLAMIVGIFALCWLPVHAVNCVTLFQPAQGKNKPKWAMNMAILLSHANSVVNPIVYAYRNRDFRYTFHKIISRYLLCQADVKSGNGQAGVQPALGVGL
Another series concerns the target CYP2D6 (Homo sapiens (Human), UniProt P10635). The series can be described thus: CYP450 inhibition at 10 μM, CYP2D6. Format: in vitro ADME. The note with it: read-out: CYP 450 % INH @ 10 μM.
The target of the next series is adenosine A1 receptor (Homo sapiens (Human), UniProt P30542). In words: A1 cAMP IC50 assay (Table 1). Format: biochemical.
Chain of adenosine A1 receptor (P30542 whole entry): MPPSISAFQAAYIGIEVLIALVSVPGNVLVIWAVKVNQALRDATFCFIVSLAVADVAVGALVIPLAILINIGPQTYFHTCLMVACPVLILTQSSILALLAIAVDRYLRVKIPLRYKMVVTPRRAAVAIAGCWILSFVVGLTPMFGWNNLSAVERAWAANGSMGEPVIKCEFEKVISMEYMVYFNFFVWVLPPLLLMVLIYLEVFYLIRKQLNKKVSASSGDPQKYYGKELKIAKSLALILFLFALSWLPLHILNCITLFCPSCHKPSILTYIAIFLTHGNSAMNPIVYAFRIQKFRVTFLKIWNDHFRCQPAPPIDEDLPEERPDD

Chain of CYP2D6 (P10635 whole entry): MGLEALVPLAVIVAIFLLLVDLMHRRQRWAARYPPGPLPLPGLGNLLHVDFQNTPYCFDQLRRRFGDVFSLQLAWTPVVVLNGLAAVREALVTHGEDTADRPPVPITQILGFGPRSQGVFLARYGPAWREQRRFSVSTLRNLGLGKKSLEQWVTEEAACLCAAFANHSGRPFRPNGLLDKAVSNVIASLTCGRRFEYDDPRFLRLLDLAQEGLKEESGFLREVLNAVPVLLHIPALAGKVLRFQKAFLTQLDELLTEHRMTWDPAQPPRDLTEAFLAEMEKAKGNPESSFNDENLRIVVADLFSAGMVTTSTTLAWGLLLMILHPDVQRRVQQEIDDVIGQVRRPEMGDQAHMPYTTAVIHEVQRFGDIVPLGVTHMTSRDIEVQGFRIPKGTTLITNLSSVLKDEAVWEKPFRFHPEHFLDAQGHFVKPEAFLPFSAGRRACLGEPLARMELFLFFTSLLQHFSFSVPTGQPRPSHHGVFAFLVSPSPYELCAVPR
Chain of adenosine A2A receptor (P29274 whole entry): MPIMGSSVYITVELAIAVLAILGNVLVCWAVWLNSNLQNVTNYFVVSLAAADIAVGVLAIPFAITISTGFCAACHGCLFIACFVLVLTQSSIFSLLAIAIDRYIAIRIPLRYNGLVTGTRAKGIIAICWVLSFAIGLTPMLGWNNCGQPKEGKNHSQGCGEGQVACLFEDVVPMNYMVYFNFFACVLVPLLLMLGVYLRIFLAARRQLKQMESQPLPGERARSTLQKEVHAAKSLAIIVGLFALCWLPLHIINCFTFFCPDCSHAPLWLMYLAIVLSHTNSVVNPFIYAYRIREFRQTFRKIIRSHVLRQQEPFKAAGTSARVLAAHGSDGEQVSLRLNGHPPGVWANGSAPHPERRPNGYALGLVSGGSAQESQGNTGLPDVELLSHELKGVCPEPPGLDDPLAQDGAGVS
Chain of adenosine A3 receptor (P0DMS8 whole entry): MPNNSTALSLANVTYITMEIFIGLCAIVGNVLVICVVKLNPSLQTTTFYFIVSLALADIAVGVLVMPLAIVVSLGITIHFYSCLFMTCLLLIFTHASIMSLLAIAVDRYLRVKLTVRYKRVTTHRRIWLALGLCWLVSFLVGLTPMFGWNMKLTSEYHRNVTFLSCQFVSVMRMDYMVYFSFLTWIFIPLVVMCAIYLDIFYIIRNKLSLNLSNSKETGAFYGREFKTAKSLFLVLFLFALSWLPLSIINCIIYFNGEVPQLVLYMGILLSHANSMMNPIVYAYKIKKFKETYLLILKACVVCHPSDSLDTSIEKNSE

Consider `C[C@H](Nc1nc(C(=O)N2CCC2)c2sccc2n1)c1cccnc1` [Example Z2, (S)-Azetidin-1-yl(2-((1-(pyridin-3-yl)ethyl)amino)thieno[3,2-d]pyrimidin-4-yl)methanone], for which the IC50 – broadly, the concentration needed to halve the response being measured – at adenosine A3 receptor was above 500 nM; on adenosine A2A receptor, 100 to 500 nM; on adenosine A2B receptor, below 10 nM; against adenosine A1 receptor, above 500 nM. Further, the results for the hepatocyte CLint in series [1] and in [3] were 9.27 µL/min/1e6 cells and 37.7 µL/min/1e6 cells, respectively. The inhibition at 10 µM is 66% at CYP3A4 and 38% at CYP2D6. For the same compound, the “LM CLint” value is 23.61 μL/min/mg/protein in series [2] and 27.86 μL/min/mg/protein in series [4]. Besides, the Ratio at adenosine A2B receptor came out at 31.36.
Consider `C[C@H](Nc1nc(C(=O)N2CC[C@@H](F)C2)c2sccc2n1)c1cccnc1` [Example Z8, ((R)-3-Fluoropyrrolidin-1-yl)(2-(((S)-1-(pyridin-3-yl)ethyl)amino)thieno[3,2-d]pyrimidin-4-yl)methanone], for which the concentration for half-maximal inhibition (IC50) against adenosine A3 receptor was above 500 nM; at adenosine A2A receptor it was 100 to 500 nM; on adenosine A2B receptor, 10 to 50 nM; against adenosine A1 receptor, above 500 nM. For the same compound, the hepatocyte CLint – broadly, the capacity of the preparation to metabolise the compound, expressed as a volume cleared per time – in series [1] came out at 7.75 µL/min/1e6 cells; in series [3], 47.6 µL/min/1e6 cells. For the same compound, the inhibition at 10 µM on CYP3A4 is 74%; at CYP2D6 it was 41%. In addition, the “LM CLint” value in series [2] came to 17.06 μL/min/mg/protein; in [4] it was 20.43 μL/min/mg/protein. In addition, the Ratio on adenosine A2B receptor is given as 7.83.
As to `COc1ccc(CNC(=O)c2nc(N[C@@H](C)c3ccccn3)nc3ccsc23)cn1` [Example Z16, (S)—N-((6-Methoxypyridin-3-yl)methyl)-2-((1-(pyridin-2-yl)ethyl)amino)thieno[3,2-d]pyrimidine-4-carboxamide], the half-maximal inhibitory concentration (IC50) against adenosine A3 receptor was above 500 nM; on adenosine A2A receptor, 50 to 100 nM; at adenosine A2B receptor it was 10 to 50 nM; against adenosine A1 receptor, above 500 nM. For the same compound, the intrinsic metabolic clearance (hepatocyte CLint) in [1] was 14.5 µL/min/1e6 cells; in series [3] it was 58.6 µL/min/1e6 cells. Moreover, the inhibition at 10 µM at CYP3A4 came out at 46%; at CYP2D6, 13%. In addition, the “LM CLint” value in series [2] worked out at 17.68 μL/min/mg/protein; in series [4], 32.42 μL/min/mg/protein. The Ratio at adenosine A2B receptor came out at 1.67.
In the case of `CO[C@H]1CCN(C(=O)c2nc(N[C@@H](C)c3cccnc3)nc3ccsc23)C1` [Example Z18, ((S)-3-Methoxypyrrolidin-1-yl)(2-(((S)-1-(pyridin-3-yl)ethyl)amino)thieno[3,2-d]pyrimidin-4-yl)methanone], the IC50 against adenosine A3 receptor was above 500 nM; at adenosine A2A receptor it was 50 to 100 nM; at adenosine A2B receptor it was 50 to 100 nM; against adenosine A1 receptor, above 500 nM. For the same compound, the hepatocyte CLint in [1] was 12.3 µL/min/1e6 cells; in series [3], 68.4 µL/min/1e6 cells. Moreover, the inhibition at 10 µM came out at 52% on CYP3A4 and 44% at CYP2D6. Moreover, the “LM CLint” value in series [2] amounted to 14.28 μL/min/mg/protein; in [4] it was 44.15 μL/min/mg/protein. Besides, the Ratio on adenosine A2B receptor came to 0.88.
Turning to `CO[C@@H]1CCN(C(=O)c2nc(N[C@@H](C)c3cccnc3)nc3ccsc23)C1` [Example Z19, ((R)-3-Methoxypyrrolidin-1-yl)(2-(((S)-1-(pyridin-3-yl)ethyl)amino)thieno[3,2-d]pyrimidin-4-yl)methanone], the IC50 at adenosine A3 receptor is 50 to 100 nM; on adenosine A2A receptor, 10 to 50 nM; on adenosine A2B receptor, 10 to 50 nM; against adenosine A1 receptor it was above 500 nM. The results for the hepatocyte CLint in series [1] and in series [3] were 12.9 µL/min/1e6 cells and 83.4 µL/min/1e6 cells, respectively. The values for the inhibition at 10 µM at CYP3A4 and on CYP2D6 were 42% and 51%, respectively. Also, the “LM CLint” value in [2] is on record as 17.60 μL/min/mg/protein; in series [4], 63.06 μL/min/mg/protein. For the same compound, the Ratio at adenosine A2B receptor came out at 1.37.
As for `C[C@H](Nc1nc(C(=O)N2CC[C@@H](O)C2)c2sccc2n1)c1cccnc1` [Example Z29, ((R)-3-Hydroxypyrrolidin-1-yl)(2-(((S)-1-(pyridin-3-yl)ethyl)amino)thieno[3,2-d]pyrimidin-4-yl)methanone], the IC50 is above 500 nM against adenosine A3 receptor, above 500 nM on adenosine A2A receptor, 50 to 100 nM on adenosine A2B receptor and above 500 nM against adenosine A1 receptor. Also, the hepatocyte CLint is 4.27 µL/min/1e6 cells in [1] and 44 µL/min/1e6 cells in [3]. Besides, the inhibition at 10 µM at CYP3A4 was found to be 26%; at CYP2D6 it was 16%. Besides, the “LM CLint” value is given as 4.28 μL/min/mg/protein in series [2] and 9.22 μL/min/mg/protein in series [4]. Besides, the Ratio on adenosine A2B receptor stood at 24.95.
`C[C@H](Nc1nc(C(=O)N2CC(F)(F)C2)c2sccc2n1)c1cccnc1` [Example Z32, (S)-(3,3-Difluoroazetidin-1-yl)(2-((1-(pyridin-3-yl)ethyl)amino)thieno[3,2-d]pyrimidin-4-yl)methanone]: the IC50 was above 500 nM against adenosine A3 receptor, 100 to 500 nM at adenosine A2A receptor, 10 to 50 nM at adenosine A2B receptor and above 500 nM against adenosine A1 receptor. The hepatocyte CLint in series [1] stood at 63.2 µL/min/1e6 cells; in series [3], 76.2 µL/min/1e6 cells. The inhibition at 10 µM on CYP3A4 was determined as 49%; on CYP2D6, 7%. Moreover, the “LM CLint” value came out at 51.28 μL/min/mg/protein in [2] and 33.25 μL/min/mg/protein in series [4]. In addition, at adenosine A2B receptor, the Ratio was 6.64.
Turning to `C[C@@H]1CCN(C(=O)c2nc(N[C@@H](C)c3cccnc3)nc3ccsc23)C1` [Example Z34, ((R)-3-Methylpyrrolidin-1-yl)(2-(((S)-1-(pyridin-3-yl)ethyl)amino)thieno[3,2-d]pyrimidin-4-yl)methanone], the IC50 at adenosine A3 receptor was above 500 nM; on adenosine A2A receptor, 100 to 500 nM; at adenosine A2B receptor, 10 to 50 nM; at adenosine A1 receptor it was above 500 nM. The figures for the hepatocyte CLint in series [1] and in series [3] were 23.5 µL/min/1e6 cells and 131 µL/min/1e6 cells, respectively. The figures for the inhibition at 10 µM on CYP3A4 and at CYP2D6 were 82% and 22%, respectively. The “LM CLint” value in series [2] was 53.26 μL/min/mg/protein; in series [4], 81.23 μL/min/mg/protein. Moreover, the Ratio on adenosine A2B receptor came to 4.99.
Take `C[C@H](NC(=O)c1nc(N[C@@H](C)c2ccccn2)nc2ccsc12)c1ccccn1` [Example Z54, N—((S)-1-(Pyridin-2-yl)ethyl)-2-(((S)-1-(pyridin-2-yl)ethyl)amino)thieno[3,2-d]pyrimidine-4-carboxamide]: the IC50 at adenosine A3 receptor was 50 to 100 nM; on adenosine A2A receptor, 10 to 50 nM; on adenosine A2B receptor, 10 to 50 nM; on adenosine A1 receptor, above 500 nM. The hepatocyte CLint in series [1] is 24.9 µL/min/1e6 cells; in [3], 126 µL/min/1e6 cells. Further, the results for the inhibition at 10 µM on CYP3A4 and on CYP2D6 were 38% and 3%, respectively. Moreover, the results for the “LM CLint” value in series [2] and in [4] were 14.10 μL/min/mg/protein and 39.84 μL/min/mg/protein, respectively. In addition, the Ratio on adenosine A2B receptor came to 1.42.
Consider `Cc1cncc(CNc2nc(C(=O)N3CCC3)c3sccc3n2)c1` [Example Z55, Azetidin-1-yl(2-(((5-methylpyridin-3-yl)methyl)amino)thieno[3,2-d]pyrimidin-4-yl)methanone], for which the half-maximal inhibitory concentration (IC50) was above 500 nM against adenosine A3 receptor, above 500 nM on adenosine A2A receptor, 10 to 50 nM on adenosine A2B receptor and above 500 nM on adenosine A1 receptor. Besides, the hepatocyte CLint in [1] turned out to be 25.6 µL/min/1e6 cells; in series [3] it was 64.7 µL/min/1e6 cells. For the same compound, the inhibition at 10 µM at CYP3A4 turned out to be 76%; on CYP2D6 it was 19%. Besides, the “LM CLint” value in [2] is 63.74 μL/min/mg/protein; in series [4] it was 94.74 μL/min/mg/protein. On adenosine A2B receptor, the Ratio was determined as 127.22.
For `O=C(c1nc(NCc2cncc(F)c2)nc2ccsc12)N1CC[C@@H](F)C1` [Example Z60, (R)-(2-(((5-Fluoropyridin-3-yl)methyl)amino)thieno[3,2-d]pyrimidin-4-yl)(3-fluoropyrrolidin-1-yl)methanone], the IC50 on adenosine A3 receptor is above 500 nM; on adenosine A2A receptor, 100 to 500 nM; at adenosine A2B receptor it was below 10 nM; against adenosine A1 receptor it was above 500 nM. In addition, the results for the hepatocyte CLint in [1] and in series [3] were 22.8 µL/min/1e6 cells and 63.1 µL/min/1e6 cells, respectively. The inhibition at 10 µM stood at 65% at CYP3A4 and 11% at CYP2D6. In addition, the “LM CLint” value was 34.26 μL/min/mg/protein in series [2] and 46.03 μL/min/mg/protein in series [4]. Also, the Ratio on adenosine A2B receptor came out at 66.23.
For the compound `O=C(c1nc(NCc2cncc(F)c2)nc2ccsc12)N1CC[C@@H](O)C1` [Example Z66, (R)-(2-(((5-Fluoropyridin-3-yl)methyl)amino)thieno[3,2-d]pyrimidin-4-yl)(3-hydroxypyrrolidin-1-yl)methanone], the hepatocyte CLint turned out to be 7.1 µL/min/1e6 cells in series [1] and 21.2 µL/min/1e6 cells in series [3]. The values for the inhibition at 10 µM at CYP3A4 and on CYP2D6 were 24% and 4%, respectively. Moreover, the “LM CLint” value in [2] worked out at 16.45 μL/min/mg/protein; in series [4], 14.07 μL/min/mg/protein. In addition, the IC50 on adenosine A2A receptor was in the range of 100 to 500 nM; at adenosine A2B receptor, 10 to 50 nM. The Ratio at adenosine A2B receptor is listed as 15.71.
